From patent US5614213A, “Use of estriol for treatment of climacteric osteoporosis” (priority 1992, dated 1997)
“Also recorded” adds a separate entry of the source.

Experiments:
[1] = tested on: castrated (OVX) Wistar rats; test: Hydroxyproline level in serum of ovariectomized rats after estriol application; format: in vivo; details: for Hydroxyproline content in the serum: mean
Excerpt: (§1) Investigation of the osteoporotic action of estriol on ovariectomized rats
(§2) 11 week-old female Wistar rats lose a considerable proportion of their bone substance in two weeks after ovariectomy. It was to be investigated whether this effect is preventable through estriol. For this, this hormone was to be applied such that constant hormone levels are established over the whole test period. […] The assumption that estriol has insufficient activity as a partial estrogen antagonist at the bone was also to be examined as another possibility.
(§3) Female Wistar rats from the experimental animal breeders "Biomodelle GmbH", O-1291 Schonwalde (breed: Wistar) were supplied at ages from nine to ten weeks and kept under conventional conditions at a room temperature of 22° C.[…] and under a light regime (14 h light and 10 h dark) in PVC shells with fitted wire covers.
(§4) The animals received standard formulation R 13 feed and drinking water ad libitum.
(§5) At the age of 11 weeks (body weight approximately 220 g) the animals were used in the experiment.
(§6) Subcutaneous application osmotic pumps. Model: Alzet 2002, capacity of the reservoir 200 μl. Throughflow 0.5 μl/hour. Solution of the test substance in propylene glycol.
(§7) The duration of the whole experiment was 3 weeks, 1 week before castration and two weeks (15 days) after castration.
In the week prior to castration, characteristic parameters. were determined "as starting values" prior to the estrogen-specific bone degradation through ovariectomy (hydroxyproline content in the 24-h-urine, hydroxyproline content and estriol concentration in the serum). […]
(§8) Hydroxyproline is released during the decomposition of collagen which also accounts for a considerable proportion of the bone substance.

[2] = tested on: castrated (OVX) Wistar rats; test: Hydroxyproline excretion in 24-h urine of ovariectomized rats after estriol application; format: in vivo; details: for Hydroxyproline content in the urine: mean, n = 8
Excerpt: as §1, §2, §3, §4, §5, §6, §7
In the week prior to castration, characteristic parameters. were determined "as starting values" prior to the estrogen-specific bone degradation through ovariectomy (hydroxyproline content in the 24-h-urine, hydroxyproline content and estriol concentration in the serum).
For the determination of the hydroxyproline content in the urine, the collective urine was obtained over 24 hours. For this, the animals were individually placed once a week in diuresis cages which permitted a sufficiently clean collection of urine, separate from faeces. The hydroxyproline content was then determined in the collective urine of each individual animal.
as §8

femur bones = test: Trabecular proportion of the bone volume (femur histology) after ovariectomy; format: in vivo, Wistar rats
Excerpt: as §1, §2, §3, §4, §5, §6, §7
At the end of the experiment the animals were killed and the femur bones fixed for histological investigations according to standard methods, cut with a hard cut microtome and investigated qualitatively and quantitatively as regards morphological features.
The effect on the proportion of trabecular structures in the surface of bone sections was determined as a parameter of the osteoprotective effect of estriol.

uterus = details: administered once to ovariectomized rats; cited from earlier work
bones = details: dosage quantities of 12 mg/day oral; cited from earlier work
mastocarcinomas = details: mastocarcinoma; induction and promotion phases; cited from earlier work
receptor = details: in combination with "strong" estrogens; cited from earlier work
osteoporosis = details: official statement / text book; cited from earlier work
[3] = conjugation with glucuronic acid or sulphate in the liver; cited from earlier work
[4] = OVX + D1, estriol 0.1 μg/24 hrs, day 7 after castration
[5] = OVX + D1, estriol 0.1 μg/24 hrs, day 15 after castration
[6] = OVX + D2, estriol 1.0 μg/24 hrs, day 7 after castration
[7] = OVX + D2, estriol 1.0 μg/24 hrs, day 15 after castration
[8] = OVX + D3, estriol 10.0 μg/24 hrs, day 7 after castration
[9] = OVX + D3, estriol 10.0 μg/24 hrs, day 15 after castration
[10] = OVX + D4, estriol 50.0 μg/24 hrs, day 7 after castration
[11] = OVX + D4, estriol 50.0 μg/24 hrs, day 15 after castration
[12] = OVX + D1, estriol 0.1 μg/24 hrs, day 12 after castration
[13] = OVX + D1, estriol 0.1 μg/24 hrs, day 13 after castration
[14] = OVX + D1, estriol 0.1 μg/24 hrs, day 14 after castration
[15] = OVX + D2, estriol 1.0 μg/24 hrs, day 12 after castration
[16] = OVX + D2, estriol 1.0 μg/24 hrs, day 13 after castration
[17] = OVX + D2, estriol 1.0 μg/24 hrs, day 14 after castration
[18] = OVX + D3, estriol 10.0 μg/24 hrs, day 12 after castration
[19] = OVX + D3, estriol 10.0 μg/24 hrs, day 13 after castration
[20] = OVX + D3, estriol 10.0 μg/24 hrs, day 14 after castration

Structure (SMILES): C[C@]12CC[C@@H]3c4ccc(O)cc4CC[C@H]3[C@@H]1C[C@@H](O)[C@@H]2O [estriol]
- Hydroxyproline content in the serum ([1]; OVX + D1, estriol 0.1 μg/24 hrs, day 0 after castration (starting value), n = 8): 30,55 μmol/1 l
- relative change of hydroxyproline content in the serum [1, 4]: 18,44%
- Hydroxyproline content in the serum ([1]; OVX + D1, estriol 0.1 μg/24 hrs, day 7 after castration, n = 8): 35,31 μmol/1 l
- relative change of hydroxyproline content in the serum [1, 5]: 11,66%
- Hydroxyproline content in the serum ([1]; OVX + D1, estriol 0.1 μg/24 hrs, day 15 after castration, n = 8): 33,36 μmol/1 l
- Hydroxyproline content in the serum ([1]; OVX + D2, estriol 1.0 μg/24 hrs, day 0 after castration (starting value), n = 8): 30,74 μmol/1 l
- relative change of hydroxyproline content in the serum [1, 6]: 8,82%
- Hydroxyproline content in the serum ([1]; OVX + D2, estriol 1.0 μg/24 hrs, day 7 after castration, n = 8): 33,20 μmol/1 l
- relative change of hydroxyproline content in the serum [1, 7]: 0,39%
- Hydroxyproline content in the serum ([1]; OVX + D2, estriol 1.0 μg/24 hrs, day 15 after castration, n = 8): 30,51 μmol/1 l
- Hydroxyproline content in the serum ([1]; OVX + D3, estriol 10.0 μg/24 hrs, day 0 after castration (starting value), n = 8): 28,16 μmol/1 l
- relative change of hydroxyproline content in the serum [1, 8]: -3,56%
- Hydroxyproline content in the serum ([1]; OVX + D3, estriol 10.0 μg/24 hrs, day 7 after castration, n = 8): 26,25 μmol/1 l
- relative change of hydroxyproline content in the serum [1, 9]: -23,81%
- Hydroxyproline content in the serum ([1]; OVX + D3, estriol 10.0 μg/24 hrs, day 15 after castration, n = 8): 20,90 μmol/1 l
- Hydroxyproline content in the serum ([1]; OVX + D4, estriol 50.0 μg/24 hrs, day 0 after castration (starting value), n = 9): 28,26 μmol/1 l
- relative change of hydroxyproline content in the serum [1, 10]: -8,87%
- Hydroxyproline content in the serum ([1]; OVX + D4, estriol 50.0 μg/24 hrs, day 7 after castration, n = 9): 25,45 μmol/1 l
- relative change of hydroxyproline content in the serum [1, 11]: -38,62%
- Hydroxyproline content in the serum ([1]; OVX + D4, estriol 50.0 μg/24 hrs, day 15 after castration, n = 9): 17,33 μmol/1 l
- effect on increase of hydroxyproline in the blood after ovariectomy ([1]; result in words, Table 2): this increase was suppressed through treatment with estriol in dose-dependent manner
- Hydroxyproline content in the urine ([2]; OVX + D1, estriol 0.1 μg/24 hrs, day 0 after castration (starting value)): 1,46 μmol/1 d
- relative change of hydroxyproline content in the urine [2, 4]: 56,95%
- Hydroxyproline content in the urine [2, 4]: 2,15 μmol/1 d
- relative change of hydroxyproline content in the urine [2, 12]: 84,62%
- Hydroxyproline content in the urine [2, 12]: 2,41 μmol/1 d
- relative change of hydroxyproline content in the urine [2, 13]: 79,03%
- Hydroxyproline content in the urine [2, 13]: 2,51 μmol/1 d
- relative change of hydroxyproline content in the urine [2, 14]: 59,47%
- Hydroxyproline content in the urine [2, 14]: 2,11 μmol/1 d
- relative change of hydroxyproline content in the urine [2, 5]: 40,95%
- Hydroxyproline content in the urine [2, 5]: 2,00 μmol/1 d
- Hydroxyproline content in the urine ([2]; OVX + D2, estriol 1.0 μg/24 hrs, day 0 after castration (starting value)): 1,63 μmol/1 d
- relative change of hydroxyproline content in the urine [2, 6]: 15,48%
- Hydroxyproline content in the urine [2, 6]: 1,94 μmol/1 d
- relative change of hydroxyproline content in the urine [2, 15]: 74,86%
- Hydroxyproline content in the urine [2, 15]: 2,97 μmol/1 d
- relative change of hydroxyproline content in the urine [2, 16]: 42,71%
- Hydroxyproline content in the urine [2, 16]: 2,40 μmol/1 d
- relative change of hydroxyproline content in the urine [2, 17]: 37,83%
- Hydroxyproline content in the urine [2, 17]: 2,31 μmol/1 d
- relative change of hydroxyproline content in the urine [2, 7]: 10,69%
- Hydroxyproline content in the urine [2, 7]: 1,83 μmol/1 d
- Hydroxyproline content in the urine ([2]; OVX + D3, estriol 10.0 μg/24 hrs, day 0 after castration (starting value)): 1,67 μmol/1 d
- relative change of hydroxyproline content in the urine [2, 8]: 47,88%
- Hydroxyproline content in the urine [2, 8]: 0,88 μmol/1 d
- relative change of hydroxyproline content in the urine [2, 18]: -40,47%
- Hydroxyproline content in the urine [2, 18]: 0,98 μmol/1 d
- relative change of hydroxyproline content in the urine [2, 19]: -36,63%
- Hydroxyproline content in the urine [2, 19]: 1,04 μmol/1 d
- relative change of hydroxyproline content in the urine [2, 20]: -48,91%
- Hydroxyproline content in the urine [2, 20]: 0,94 μmol/1 d
- relative change of hydroxyproline content in the urine [2, 9]: -28,45%
- Hydroxyproline content in the urine [2, 9]: 1,16 μmol/1 d
- relative change of hydroxyproline content in the urine [2, 10]: -34,52%
- relative change of hydroxyproline content in the urine ([2]; OVX + D4, estriol 50.0 μg/24 hrs, day 12 after castration): -33,26%
- relative change of hydroxyproline content in the urine ([2]; OVX + D4, estriol 50.0 μg/24 hrs, day 13 after castration): -35,04%
- relative change of hydroxyproline content in the urine ([2]; OVX + D4, estriol 50.0 μg/24 hrs, day 14 after castration): -38,21%
- relative change of hydroxyproline content in the urine [2, 11]: -40,43%
- effect on increase of hydroxyproline excretion in the urine after castration ([2]; result in words, Table 3): can also be alleviated through treatment with estriol
- % trabecular proportion of the bone volume (femur bones; OVX + 0.1 microg E3/day): 16.89%
- % trabecular proportion of the bone volume (femur bones; OVX + 1.0 microg E3/day): 17.46%
- % trabecular proportion of the bone volume (femur bones; OVX + 10.0 microg E3/day): 24.79%
- % trabecular proportion of the bone volume (femur bones; OVX + 50.0 microg E3/day): 26.64%
- osteoprotective potential (femur bones; overall evaluation, uniform levels of active ingredient): has an osteoprotective potential
- effect on decomposition of bone mass after castration (femur bones; result in words, Table 4): alleviated by estriol in a dose-dependent manner
- stimulation of uterine weights (uterus): does not significantly stimulate uterine weights
- osteoprotective effectiveness in the bones (bones): developed no osteoprotective effectiveness in the bones
- anti-tumour effect (mastocarcinomas): can prevent or suppress the development of mastocarcinomas; also recorded: proven anti-tumour effect
- anti-estrogen action (receptor): proved to have an anti-estrogen action
- effectiveness for osteoporosis prophylaxis (osteoporosis): ineffectiveness; also recorded: Not effective for osteoporosis prophylaxis
- inactivation of estriol [3]: inactivated extremely quickly
